Several values for one entry are separate records, joined by “and”; a condition that tells them apart may be missing. Equal entries are not always repeated. Inconclusive results and toxic doses are left out. How the source made its calls: active means survival T/C of 150% or more; inactive means T/C below 125% in these data.
System: P388 leukemia ip, CD2F1 mice, survival T/C
Assay: NCI In Vivo Anticancer Drug Screen. Data for tumor model P388 Leukemia (intraperitoneal) in CD2F1 (CDF1) mice
Conditions: endpoint: median survival time, higher = longer survival
Outline: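 Mice carrying the transplanted tumor received test compound or vehicle. Survival was recorded in each group, and the value is the treated-group measurement divided by that of the vehicle-treated control group.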

[1] = dose: 50.0 mg/kg/injection, schedule: Q01DX009 (ip), vehicle: saline with Tween-80
[2] = dose: 50.0 mg/kg/injection, schedule: Q01DX009 (ip), vehicle: saline
[3] = dose: 100.0 mg/kg/injection, schedule: Q01DX009 (ip), vehicle: saline with Tween-80
[4] = dose: 100.0 mg/kg/injection, schedule: Q01DX009 (ip), vehicle: saline
[5] = dose: 200.0 mg/kg/injection, schedule: Q01DX009 (ip), vehicle: saline with Tween-80
[6] = dose: 200.0 mg/kg/injection, schedule: Q01DX009 (ip), vehicle: saline
[7] = dose: 60.0 mg/kg/injection, schedule: Q01DX005 (ip), vehicle: Klucel (hydroxypropylcellulose) (HPC)
[8] = dose: 12.5 mg/kg/injection, schedule: Q01DX009 (ip), vehicle: saline with Tween-80

Measured: T/C

CCC1CN2CCc3cc(OC)c(OC)cc3C2CC1=O (stereo not given)
inactive: dose: 12.5 mg/kg/injection, schedule: Q01DX009 (ip), vehicle: saline 104 % of control | dose: 25.0 mg/kg/injection, schedule: Q01DX009 (ip), vehicle: saline 99 % of control | dose: 37.5 mg/kg/injection, schedule: Q04DX003 (ip), vehicle: saline with Tween-80 101 % of control | [1] 107 % of control | [2] 99 % of control and 103 % of control | dose: 75.0 mg/kg/injection, schedule: Q04DX003 (ip), vehicle: saline with Tween-80 121 % of control | [3] 112 % of control | [4] 96 % of control and 97 % of control | [5] 107 % of control | [6] 106 % of control

COC(=O)C1Cc2cocc2CC(C(=O)OC)N1C(=O)OC(C)(C)C (stereo not given)
inactive: dose: 8.75 mg/kg/injection, schedule: Q01DX005 (ip), vehicle: Klucel (hydroxypropylcellulose) (HPC) 99 % of control | dose: 17.5 mg/kg/injection, schedule: Q01DX005 (ip), vehicle: Klucel (hydroxypropylcellulose) (HPC) 101 % of control | dose: 35.0 mg/kg/injection, schedule: Q01DX005 (ip), vehicle: Klucel (hydroxypropylcellulose) (HPC) 99 % of control

COc1cc(OC(C)C)cc2c1C(=O)C(C(O)(O)C(F)(F)F)=CC2=O
inactive: dose: 15.0 mg/kg/injection, schedule: Q01DX005 (ip), vehicle: Klucel (hydroxypropylcellulose) (HPC) 109 % of control | dose: 30.0 mg/kg/injection, schedule: Q01DX005 (ip), vehicle: Klucel (hydroxypropylcellulose) (HPC) 103 % of control | [7] 99 % of control

CC(=O)OCC1OC(OC(C)=O)C(N(CCCl)CCCl)C(OC(C)=O)C1OC(C)=O (stereo not given)
inactive: dose: 5.0 mg/kg/injection, schedule: Q01DX005 (ip), vehicle: water 110 % of control
active: dose: 0.31 mg/kg/injection, schedule: Q01DX005 (ip), vehicle: water 151 % of control | dose: 0.62 mg/kg/injection, schedule: Q01DX005 (ip), vehicle: water 151 % of control | dose: 1.25 mg/kg/injection, schedule: Q01DX005 (ip), vehicle: distilled water + Tween-80 181 % of control | dose: 1.25 mg/kg/injection, schedule: Q01DX005 (ip), vehicle: water 177 % of control | dose: 2.5 mg/kg/injection, schedule: Q01DX005 (ip), vehicle: distilled water + Tween-80 216 % of control | dose: 2.5 mg/kg/injection, schedule: Q01DX005 (ip), vehicle: water 213 % of control

Cc1ccc(N=Nc2ccc(N(CCCl)CCCl)cc2C)c(C(=O)O)c1
inactive: dose: 25.0 mg/kg/injection, schedule: Q01DX009 (ip), vehicle: saline with Tween-80 123 % of control
active: [8] 153 % of control and 177 % of control

COc1cc2c(c(OC)c1OC)-c1ccc(O)c(=O)cc1C(NC(C)=O)CC2 (stereo not given)
inactive: dose: 2.5 mg/kg/injection, schedule: Q01DX009 (ip), vehicle: Klucel (hydroxypropylcellulose) (HPC) 100 % of control | dose: 5.0 mg/kg/injection, schedule: Q01DX009 (ip), vehicle: Klucel (hydroxypropylcellulose) (HPC) 99 % of control | dose: 10.0 mg/kg/injection, schedule: Q01DX009 (ip), vehicle: Klucel (hydroxypropylcellulose) (HPC) 100 % of control and 102 % of control | dose: 20.0 mg/kg/injection, schedule: Q01DX009 (ip), vehicle: Klucel (hydroxypropylcellulose) (HPC) 107 % of control and 115 % of control | dose: 40.0 mg/kg/injection, schedule: Q01DX009 (ip), vehicle: Klucel (hydroxypropylcellulose) (HPC) 108 % of control | dose: 80.0 mg/kg/injection, schedule: Q01DX009 (ip), vehicle: Klucel (hydroxypropylcellulose) (HPC) 110 % of control

COc1ccc(C(=O)c2[nH]ncc2Nc2ccccc2)cc1
inactive: [7] 97 % of control | dose: 120.0 mg/kg/injection, schedule: Q01DX005 (ip), vehicle: Klucel (hydroxypropylcellulose) (HPC) 117 % of control | dose: 240.0 mg/kg/injection, schedule: Q01DX005 (ip), vehicle: Klucel (hydroxypropylcellulose) (HPC) 91 % of control

CCCCC(=O)N(c1ccc(Nc2c3ccccc3nc3cc([N+](=O)[O-])ccc23)cc1)S(C)(=O)=O
inactive: dose: 0.07 mg/kg/injection, schedule: Q01DX009 (ip), vehicle: saline with Tween-80 107 % of control | dose: 0.1 mg/kg/injection, schedule: Q01DX009 (ip), vehicle: saline with Tween-80 107 % of control | dose: 0.15 mg/kg/injection, schedule: Q01DX009 (ip), vehicle: saline with Tween-80 105 % of control | dose: 0.23 mg/kg/injection, schedule: Q01DX009 (ip), vehicle: saline with Tween-80 123 % of control | dose: 0.44 mg/kg/injection, schedule: Q04DX003 (ip), vehicle: saline with Tween-80 112 % of control | dose: 0.66 mg/kg/injection, schedule: Q04DX003 (ip), vehicle: saline with Tween-80 113 % of control | dose: 1.0 mg/kg/injection, schedule: Q04DX003 (ip), vehicle: saline with Tween-80 119 % of control
active: dose: 2.5 mg/kg/injection, schedule: Q01DX009 (ip), vehicle: saline with Tween-80 188 % of control | dose: 4.4 mg/kg/injection, schedule: Q04DX003 (ip), vehicle: saline with Tween-80 154 % of control | dose: 5.0 mg/kg/injection, schedule: Q01DX009 (ip), vehicle: saline with Tween-80 227 % of control | dose: 6.6 mg/kg/injection, schedule: Q04DX003 (ip), vehicle: saline with Tween-80 159 % of control | dose: 9.38 mg/kg/injection, schedule: Q01DX009 (ip), vehicle: saline with Tween-80 227 % of control | dose: 10.0 mg/kg/injection, schedule: Q01DX009 (ip), vehicle: saline with Tween-80 254 % of control | dose: 10.0 mg/kg/injection, schedule: Q04DX003 (ip), vehicle: saline with Tween-80 168 % of control | dose: 10.8 mg/kg/injection, schedule: Q04DX003 (ip), vehicle: water 153 % of control | dose: 15.0 mg/kg/injection, schedule: Q04DX003 (ip), vehicle: saline with Tween-80 186 % of control | dose: 18.0 mg/kg/injection, schedule: Q04DX003 (ip), vehicle: water 162 % of control | dose: 30.0 mg/kg/injection, schedule: Q04DX003 (ip), vehicle: water 180 % of control | dose: 50.0 mg/kg/injection, schedule: Q04DX003 (ip), vehicle: water 171 % of control

O=P1(CNc2ccccc2)CN(c2ccccc2)CN(c2ccccc2)C1
inactive: dose: 12.5 mg/kg/injection, schedule: Q01DX001 (ip), vehicle: saline with Tween-80 100 % of control | dose: 25.0 mg/kg/injection, schedule: Q01DX001 (ip), vehicle: saline with Tween-80 100 % of control | dose: 50.0 mg/kg/injection, schedule: Q01DX001 (ip), vehicle: saline with Tween-80 100 % of control

CC(=O)c1c(O)c(C)c(C)c2c1OC(=O)C2C (stereo not given)
inactive: dose: 3.12 mg/kg/injection, schedule: Q01DX009 (ip), vehicle: saline with Tween-80 109 % of control | dose: 6.25 mg/kg/injection, schedule: Q01DX009 (ip), vehicle: saline with Tween-80 116 % of control | [8] 108 % of control

CCOC(=O)c1cnc2ccccn2c1=O
inactive: [2] 90 % of control | [4] 88 % of control

C[CH2][Sn]([c]1ccccc1)([c]1ccccc1)[c]1ccccc1
inactive: dose: 12.5 mg/kg/injection, schedule: Q04DX003 (ip), vehicle: saline with Tween-80 95 % of control | dose: 25.0 mg/kg/injection, schedule: Q04DX003 (ip), vehicle: saline with Tween-80 100 % of control | dose: 50.0 mg/kg/injection, schedule: Q04DX003 (ip), vehicle: saline with Tween-80 100 % of control

CC(=O)OC1CC(=O)OC(C)(C)C2CC(=O)C3(C)C(CCC4(C)C(c5ccoc5)OC(=O)C5OC543)C12C (stereo not given)
inactive: [1] 99 % of control | [3] 97 % of control | [5] 97 % of control

OC1(C2(O)CCCC2)CCCC1
inactive: dose: 100.0 mg/kg/injection, schedule: Q04DX003 (ip), vehicle: saline with Tween-80 100 % of control | dose: 200.0 mg/kg/injection, schedule: Q04DX003 (ip), vehicle: saline with Tween-80 104 % of control | dose: 400.0 mg/kg/injection, schedule: Q04DX003 (ip), vehicle: saline with Tween-80 95 % of control

CC1=CC(C)(C)Nc2ccc(CSc3ccccc3)cc21
inactive: dose: 50.0 mg/kg/injection, schedule: Q01DX009 (ip), vehicle: DMSO 111 % of control | [1] 104 % of control | [3] 110 % of control | [5] 96 % of control

COc1cc2c(ccc3cc4cccc[n+]4cc32)c(Br)c1OC
inactive: dose: 12.5 mg/kg/injection, schedule: Q01DX009 (ip), vehicle: saline sonified 104 % of control | dose: 25.0 mg/kg/injection, schedule: Q01DX009 (ip), vehicle: saline sonified 118 % of control | dose: 50.0 mg/kg/injection, schedule: Q01DX009 (ip), vehicle: saline sonified 113 % of control

O=CNNc1nn2cnnc2c2ccccc12
inactive: [2] 97 % of control | [4] 94 % of control | [6] 102 % of control

From PubChem BioAssay AID330 (DTP/NCI, 2004)
